For 25 compounds, IC50 results are on record in patent US20190284136A1, “INDOLINE DERIVATIVES” (ViiV HEALTHCARE UK LIMITED, priority 2016, published 2019).

The structures appear in SMILES notation.

In the assay the test system is HIV. In words: Table 1 IC50 of the examples (assay method not given; patent concerns inhibiting HIV replication). The class given is cell-based. The conditions noted are these: Human immunodeficiency virus 1.
A word on the IC50: it is the concentration needed to halve the response being measured. Lower therefore signals inhibition by little substance. In the case of `COc1cc(C)cc(C(=O)N2CCc3c2cc(C)c([C@H](OC(C)(C)C)C(=O)O)c3-c2cc(F)c3c(c2C)CCCO3)c1` (atropisomer, axis not shown) [Example 89, (S)-2-(tert-Butoxy)-2-((R)-4-(8-fluoro-5-methylchroman-6-yl)-1-(3-methoxy-5-methylbenzoyl)-6-methylindolin-5-yl)acetic acid], the IC50 was found to be 3 nM.

For the compound `COc1ncccc1C(=O)N1CCc2c1cc(C)c([C@H](OC(C)(C)C)C(=O)O)c2-c1cc(F)c2c(c1C)CCCO2` (atropisomer, axis not shown) [Example 90, (S)-2-(tert-Butoxy)-2-((R)-4-(8-fluoro-5-methylchroman-6-yl)-1-(2-methoxynicotinoyl)-6-methylindolin-5-yl)acetic acid], the IC50 stood at 5 nM.

In turn, `Cc1cc2c(c(-c3cc(F)c4c(c3C)CCCO4)c1[C@H](OC(C)(C)C)C(=O)O)CCN2C(=O)c1ccncc1F` (atropisomer, axis not shown) [Example 91, (S)-2-(tert-Butoxy)-2-((R)-4-(8-fluoro-5-methylchroman-6-yl)-1-(3-fluoroisonicotinoyl)-6-methylindolin-5-yl)acetic acid] gave an IC50 of 156 nM.

On to `Cc1cc2c(c(-c3cc(F)c4c(c3C)CCCO4)c1[C@H](OC(C)(C)C)C(=O)O)CCN2C(=O)c1cccc(Cl)c1Cl` (atropisomer, axis not shown) [Example 92, (S)-2-(tert-Butoxy)-2-((R)-1-(2,3-dichlorobenzoyl)-4-(8-fluoro-5-methylchroman-6-yl)-6-methylindolin-5-yl)acetic acid], for which it took 6 nM to reach half-maximal inhibition (IC50).

As for `Cc1cc2c(c(-c3cc(F)c4c(c3C)CCCO4)c1[C@H](OC(C)(C)C)C(=O)O)CCN2C(=O)c1cccc(C(F)(F)F)c1` (atropisomer, axis not shown) [Example 93, (S)-2-(tert-Butoxy)-2-((R)-4-(8-fluoro-5-methylchroman-6-yl)-6-methyl-1-(3-(trifluoromethyl)benzoyl)indolin-5-yl)acetic acid], inhibition was half-maximal at 19 nM (IC50).

In the case of `Cc1ccc(C(=O)N2CCc3c2cc(C)c([C@H](OC(C)(C)C)C(=O)O)c3-c2cc(F)c3c(c2C)CCCO3)cc1C` (atropisomer, axis not shown) [Example 94, (S)-2-(tert-Butoxy)-2-((R)-1-(3,4-dimethylbenzoyl)-4-(8-fluoro-5-methylchroman-6-yl)-6-methylindolin-5-yl)acetic acid], the midpoint of inhibition, the IC50, lay at 4 nM.

`CNC(=O)c1ccc(C(=O)N2CCc3c2cc(C)c([C@H](OC(C)(C)C)C(=O)O)c3-c2cc(F)c3c(c2C)CCCO3)cc1` (atropisomer, axis not shown) [Example 95, (S)-2-(tert-Butoxy)-2-((R)-4-(8-fluoro-5-methylchroman-6-yl)-6-methyl-1-(4-(methylcarbamoyl)benzoyl)indolin-5-yl)acetic acid] gave an IC50 of 142 nM.

`Cc1cc2c(c(-c3cc(F)c4c(c3C)CCCO4)c1[C@H](OC(C)(C)C)C(=O)O)CCN2C(=O)c1cccc(F)c1C` (atropisomer, axis not shown) [Example 96, (S)-2-(tert-Butoxy)-2-((R)-1-(3-fluoro-2-methylbenzoyl)-4-(8-fluoro-5-methylchroman-6-yl)-6-methylindolin-5-yl)acetic acid] registered an IC50 of 4 nM.

`Cc1cc(F)cc(C(=O)N2CCc3c2cc(C)c([C@H](OC(C)(C)C)C(=O)O)c3-c2cc(F)c3c(c2C)CCCO3)c1` (atropisomer, axis not shown) [Example 97, (S)-2-(tert-Butoxy)-2-((R)-1-(3-fluoro-5-methylbenzoyl)-4-(8-fluoro-5-methylchroman-6-yl)-6-methylindolin-5-yl)acetic acid] gave a half-maximal inhibitory concentration (IC50) of 6 nM.

In turn, `Cc1cc2c(c(-c3cc(F)c4c(c3C)CCCO4)c1[C@H](OC(C)(C)C)C(=O)O)CCN2C(=O)c1ccccc1Cl` (atropisomer, axis not shown) [Example 98, (S)-2-(tert-Butoxy)-2-((R)-1-(2-chlorobenzoyl)-4-(8-fluoro-5-methylchroman-6-yl)-6-methylindolin-5-yl)acetic acid] yielded an IC50 of 2 nM.

The compound `COc1ccc(C)cc1C(=O)N1CCc2c1cc(C)c([C@H](OC(C)(C)C)C(=O)O)c2-c1cc(F)c2c(c1C)CCCO2` (atropisomer, axis not shown) [Example 99, (S)-2-(tert-Butoxy)-2-((R)-4-(8-fluoro-5-methylchroman-6-yl)-1-(2-methoxy-5-methylbenzoyl)-6-methylindolin-5-yl)acetic acid] had a 50% inhibitory concentration (IC50) of 4 nM.

For `Cc1cc2c(c(-c3cc(F)c4c(c3C)CCCO4)c1[C@H](OC(C)(C)C)C(=O)O)CCN2C(=O)c1cccc2c1OCC2` (atropisomer, axis not shown) [Example 100, (S)-2-(tert-Butoxy)-2-((R)-1-(2,3-dihydrobenzofuran-7-carbonyl)-4-(8-fluoro-5-methylchroman-6-yl)-6-methylindolin-5-yl)acetic acid], the 50% inhibitory concentration (IC50) is 5 nM.

As for `COc1ccc(F)cc1C(=O)N1CCc2c1cc(C)c([C@H](OC(C)(C)C)C(=O)O)c2-c1cc(F)c2c(c1C)CCCO2` (atropisomer, axis not shown) [Example 101, (S)-2-(tert-Butoxy)-2-((R)-1-(5-fluoro-2-methoxybenzoyl)-4-(8-fluoro-5-methylchroman-6-yl)-6-methylindolin-5-yl)acetic acid], the IC50 worked out at 5 nM.

With `COc1ccc(C(=O)N2CCc3c2cc(C)c([C@H](OC(C)(C)C)C(=O)O)c3-c2cc(F)c3c(c2C)CCCO3)cc1C` (atropisomer, axis not shown) [Example 102, (S)-2-(tert-Butoxy)-2-((R)-4-(8-fluoro-5-methylchroman-6-yl)-1-(4-methoxy-3-methylbenzoyl)-6-methylindolin-5-yl)acetic acid], 2 nM corresponded to half-maximal inhibition (IC50).

`Cc1cc2c(c(-c3cc(F)c4c(c3C)CCCO4)c1[C@H](OC(C)(C)C)C(=O)O)CCN2C(=O)c1cc(Cl)ccn1` (atropisomer, axis not shown) [Example 103, (S)-2-(tert-Butoxy)-2-((R)-1-(4-chloropicolinoyl)-4-(8-fluoro-5-methylchroman-6-yl)-6-methylindolin-5-yl)acetic acid] had an IC50 of 16 nM.

As to `CC(=O)Nc1ccc(C(=O)N2CCc3c2cc(C)c([C@H](OC(C)(C)C)C(=O)O)c3-c2cc(F)c3c(c2C)CCCO3)cc1` (atropisomer, axis not shown) [Example 104, (S)-2-((R)-1-(4-Acetamidobenzoyl)-4-(8-fluoro-5-methylchroman-6-yl)-6-methylindolin-5-yl)-2-(tert-butoxy)acetic acid], the IC50 turned out to be 323 nM.

In the case of `COc1ccc(OC)c(C(=O)N2CCc3c2cc(C)c([C@H](OC(C)(C)C)C(=O)O)c3-c2cc(F)c3c(c2C)CCCO3)c1` (atropisomer, axis not shown) [Example 106, (S)-2-(tert-Butoxy)-2-((R)-1-(2,5-dimethoxybenzoyl)-4-(8-fluoro-5-methylchroman-6-yl)-6-methylindolin-5-yl)acetic acid], the IC50 came out at 11 nM.

For the compound `COc1ccc(C)c(C(=O)N2CCc3c2cc(C)c([C@H](OC(C)(C)C)C(=O)O)c3-c2cc(F)c3c(c2C)CCCO3)c1` (atropisomer, axis not shown) [Example 107, (S)-2-(tert-Butoxy)-2-((R)-4-(8-fluoro-5-methylchroman-6-yl)-1-(5-methoxy-2-methylbenzoyl)-6-methylindolin-5-yl)acetic acid], the IC50 was found to be 5 nM.

On to `Cc1ccc(C(=O)N2CCc3c2cc(C)c([C@H](OC(C)(C)C)C(=O)O)c3-c2cc(F)c3c(c2C)CCCO3)cc1` (atropisomer, axis not shown) [Example 108, (S)-2-(tert-Butoxy)-2-((R)-4-(8-fluoro-5-methylchroman-6-yl)-6-methyl-1-(4-methylbenzoyl)indolin-5-yl)acetic acid], for which the IC50 was determined as 4 nM.

For `Cc1cc2c(c(-c3cc(F)c4c(c3C)CCCO4)c1[C@H](OC(C)(C)C)C(=O)O)CCN2C(=O)c1cc(F)ccc1F` (atropisomer, axis not shown) [Example 109, (S)-2-(tert-Butoxy)-2-((R)-1-(2,5-difluorobenzoyl)-4-(8-fluoro-5-methylchroman-6-yl)-6-methylindolin-5-yl)acetic acid], the IC50 turned out to be 11 nM.

Regarding `Cc1cc(C(=O)N2CCc3c2cc(C)c([C@H](OC(C)(C)C)C(=O)O)c3-c2cc(F)c3c(c2C)CCCO3)ccc1Cl` (atropisomer, axis not shown) [Example 110, (S)-2-(tert-Butoxy)-2-((R)-1-(4-chloro-3-methylbenzoyl)-4-(8-fluoro-5-methylchroman-6-yl)-6-methylindolin-5-yl)acetic acid], inhibition was half-maximal at 4 nM (IC50).

For `Cc1cc2c(c(-c3cc(F)c4c(c3C)CCCO4)c1[C@H](OC(C)(C)C)C(=O)O)CCN2C(=O)c1c(F)cccc1F` (atropisomer, axis not shown) [Example 111, (S)-2-(tert-Butoxy)-2-((R)-1-(2,6-difluorobenzoyl)-4-(8-fluoro-5-methylchroman-6-yl)-6-methylindolin-5-yl)acetic acid], the midpoint of inhibition, the IC50, lay at 43 nM.

On to `Cc1cc2c(c(-c3cc(F)c4c(c3C)CCCO4)c1[C@H](OC(C)(C)C)C(=O)O)CCN2C(=O)c1ccc(C(=O)N2CCCCC2)cc1` (atropisomer, axis not shown) [Example 112, (S)-2-(tert-Butoxy)-2-((R)-4-(8-fluoro-5-methylchroman-6-yl)-6-methyl-1-(4-(piperidine-1-carbonyl)benzoyl)indolin-5-yl)acetic acid], for which the IC50 was found to be 295 nM.

Turning to `COc1c(C(=O)N2CCc3c2cc(C)c([C@H](OC(C)(C)C)C(=O)O)c3-c2cc(F)c3c(c2C)CCCO3)ccc(F)c1F` (atropisomer, axis not shown) [Example 113, (S)-2-(tert-Butoxy)-2-((R)-1-(3,4-difluoro-2-methoxybenzoyl)-4-(8-fluoro-5-methylchroman-6-yl)-6-methylindolin-5-yl)acetic acid], inhibition was half-maximal at 2 nM (IC50).

Turning to `Cc1cc2c(c(-c3cc(F)c4c(c3C)CCCO4)c1[C@H](OC(C)(C)C)C(=O)O)CCN2C(=O)c1cccc2c1OCO2` (atropisomer, axis not shown) [Example 114, (S)-2-((R)-1-(Benzo[d][1,3]dioxole-4-carbonyl)-4-(8-fluoro-5-methylchroman-6-yl)-6-methylindolin-5-yl)-2-(tert-butoxy)acetic acid], the IC50 was found to be 5 nM.
